From patent publication US20090209536A1, “AMINOQUINAZOLINE CANNABINOID RECEPTOR MODULATORS FOR TREATMENT OF DISEASE” (KALYPSYS, INC., priority 2007, published 2009)

Columns and labels:
[1] = target: T1, human cannabinoid receptor type 2 (Homo sapiens, UniProt P34972); assay: Human CB2 Radioligand Binding Assay; settings: competition with [3H] CP-55,940; membranes from stably transfected CHO CB2 cells; read-out: CB2 Ligand Binding Asssay EC50
T1 construct: expressed in transfected cells; membrane preparation
In short: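 Test compounds (10 uM final, or dose-response) competed with [3H]CP-55,940, used at the Kd determined per membrane lot, for binding to stable human CB2-CHO membranes over 90 min at 30° C in pH 7.4 Tris/EGTA/MgCl2/BSA buffer. GF/C filtration then scintillation counting; 100 nM CP-55,940 defined 100% efficacy.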

[2] = target: T2, human cannabinoid receptor type 1 (Homo sapiens, UniProt P21554); assay: Human CB1 Radioligand Binding Assay (basis of selectivity, CB2 vs. CB1); settings: CB1: HEK 293 EBNA cells expressing human CB1; CB2: CHO CB2 membranes
T2 construct: purchased Perkin Elmer RBHCB1M; host or cells: HEK 293 EBNA cells
Protocol: 2. Human CB1 Radioligand Binding Assay
The incubation buffer was composed of 50 mM Tris-HCl pH 7.4, 2.5 mM EDTA, 5 mM MgCl2, 5.0 mg/ml fatty acid free BSA and the wash buffer was composed of 50 mM Tris-HCl pH 7.4, 2.5 mM EDTA, 5 mM MgCl2, 0.5 mg/ml fatty acid free BSA.

T1 sequence (P34972 whole entry): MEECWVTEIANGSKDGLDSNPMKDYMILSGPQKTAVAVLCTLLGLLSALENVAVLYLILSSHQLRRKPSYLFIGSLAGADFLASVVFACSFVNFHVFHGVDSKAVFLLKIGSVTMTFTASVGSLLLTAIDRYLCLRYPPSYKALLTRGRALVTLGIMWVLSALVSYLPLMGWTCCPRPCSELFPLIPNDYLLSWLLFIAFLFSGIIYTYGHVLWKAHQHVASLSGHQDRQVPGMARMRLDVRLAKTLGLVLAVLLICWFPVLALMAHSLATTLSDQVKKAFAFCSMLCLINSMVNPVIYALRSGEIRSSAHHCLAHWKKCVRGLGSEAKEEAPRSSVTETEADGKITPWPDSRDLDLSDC
T2 sequence (P21554 whole entry): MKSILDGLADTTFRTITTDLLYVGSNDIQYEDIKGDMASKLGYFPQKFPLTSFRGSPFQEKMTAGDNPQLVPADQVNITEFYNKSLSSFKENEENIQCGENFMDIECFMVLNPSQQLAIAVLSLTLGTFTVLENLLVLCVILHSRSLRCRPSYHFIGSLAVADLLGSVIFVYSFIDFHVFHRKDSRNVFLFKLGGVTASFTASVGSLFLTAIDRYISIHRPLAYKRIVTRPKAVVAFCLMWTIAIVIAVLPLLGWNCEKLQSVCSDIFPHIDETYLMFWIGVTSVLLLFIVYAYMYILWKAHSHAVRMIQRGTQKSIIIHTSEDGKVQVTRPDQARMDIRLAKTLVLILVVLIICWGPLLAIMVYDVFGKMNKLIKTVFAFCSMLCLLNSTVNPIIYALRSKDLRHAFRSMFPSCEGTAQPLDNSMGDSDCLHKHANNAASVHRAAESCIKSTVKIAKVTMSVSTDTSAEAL

Row | EC50 [1] | Selectivity, CB2 vs. CB1 [2] | Compound
1 | > 1000 nM | − (− indicates ≦ 10−fold) | CCOC(=O)N1CCN(c2nc(-c3ccc(Cl)cc3)nc3ccccc23)CC1 [Example 200, Ethyl 4-(2-(4-chlorophenyl)quinazolin-4-yl)piperazine-1-carboxylate]
2 | < 1000 nM | − (− indicates ≦ 10−fold) | CC(=O)N1CCN(c2nc(-c3ccc(Cl)cc3Cl)nc3ccccc23)CC1 [Example 202, 1-(4-(2-(2,4-Dichlorophenyl)quinazolin-4-yl)piperazin-1-yl)ethanone]
3 | > 1000 nM | − (− indicates ≦ 10−fold) | CCOC(=O)N1CCN(c2nc(-c3ccc(Cl)cc3Cl)nc3ccccc23)CC1 [Example 203, Ethyl 4-(2-(2,4-dichlorophenyl)quinazolin-4-yl)piperazine-1-carboxylate]
4 | < 1000 nM | + (+ indicates > 10−fold) | Clc1ccc2nc(-c3ccccc3Cl)nc(N3CCCC3)c2c1 [Example 205, 6-Chloro-2-(2-chlorophenyl)-4-(pyrrolidin-1-yl)quinazoline]
5 | > 1000 nM | − (− indicates ≦ 10−fold) | CCOC(=O)N1CCN(c2nc(-c3ccccc3Cl)nc3ccc(Cl)cc23)CC1 [Example 206, Ethyl 4-(6-chloro-2-(2-chlorophenyl)quinazolin-4-yl)piperazine-1-carboxylate]
6 | < 1000 nM | + (+ indicates > 10−fold) | CN1CCN(c2nc(-c3ccccc3Cl)nc3ccc(Cl)cc23)CC1 [Example 208, 6-Chloro-2-(2-chlorophenyl)-4-(4-methylpiperazin-1-yl)quinazoline]
7 | < 1000 nM | + (+ indicates > 10−fold) | CCOC(=O)N1CCN(c2nc(-c3ccccc3Cl)nc3ccc(OC)cc23)CC1 [Example 217, Ethyl 4-(2-(2-chlorophenyl)-6-methoxyquinazolin-4-yl)piperazine-1-carboxylate]
8 | < 1000 nM | + (+ indicates > 10−fold) | CCOC(=O)N1CCN(c2nc(-c3ccccc3Cl)nc3ccc(C(C)(C)C)cc23)CC1 [Example 219, Ethyl 4-(6-tert-butyl-2-(2-chlorophenyl)quinazolin-4-yl)piperazine-1-carboxylate]

Continued, molecule first:

Row | Compound | EC50 [1] | Selectivity, CB2 vs. CB1 [2]
9 | CC(=O)N1CCN(c2nc(-c3ccc(C(C)(C)C)cc3)nc3ccccc23)CC1 [Example 201, 1-(4-(2-(4-tert-Butylphenyl)quinazolin-4-yl)piperazin-1-yl)ethanone] | < 1000 nM | + (+ indicates > 10−fold)
10 | FC(F)(F)Oc1ccc2nc(-c3ccccc3Cl)nc(N3CCSCC3)c2c1 [Example 204, 4-(2-(2-Chlorophenyl)-6-(trifluoromethoxy)quinazolin-4-yl)thiomorpholine] | < 1000 nM | − (− indicates ≦ 10−fold)
11 | Clc1ccc2nc(-c3ccccc3Cl)nc(N3CCSCC3)c2c1 [Example 207, 4-(6-Chloro-2-(2-chlorophenyl)quinazolin-4-yl)thiomorpholine] | < 1000 nM | − (− indicates ≦ 10−fold)
12 | Clc1ccc(-c2nc(N3CCCC3)c3cc(Cl)ccc3n2)cc1 [Example 209, 6-Chloro-2-(4-chlorophenyl)-4-(pyrrolidin-1-yl)quinazoline] | > 1000 nM | − (− indicates ≦ 10−fold)
13 | Clc1ccc(-c2nc(N3CCSCC3)c3cc(Cl)ccc3n2)cc1 [Example 211, 4-(6-Chloro-2-(4-chlorophenyl)quinazolin-4-yl)thiomorpholine] | > 1000 nM | − (− indicates ≦ 10−fold)
14 | CN1CCN(c2nc(-c3ccc(Cl)cc3)nc3ccc(Cl)cc23)CC1 [Example 212, 6-Chloro-2-(4-chlorophenyl)-4-(4-methylpiperazin-1-yl)quinazoline] | > 1000 nM | − (− indicates ≦ 10−fold)
15 | CCOC(=O)N1CCN(c2nc(C3CCCCC3)nc3ccc(OC)cc23)CC1 [Example 218, Ethyl 4-(2-cyclohexyl-6-methoxyquinazolin-4-yl)piperazine-1-carboxylate] | > 1000 nM | − (− indicates ≦ 10−fold)
